A short description of this experiment: TNFa signaling inhibitors in B cell line, dose response, counter-screen (AID 1259334).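 Note: cells stimulated with TNFa after compound preincubation.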 To be noted: B cell line, TNFa signaling counterscreen reporter, active compounds read low.

Each structure is given as a SMILES string. Activity calls are given as the source filed them. Cut-off read from the data, not from the text of the source: active = AC50 below about 11 µM.

In the case of `Cc1ccccc1S(=O)(=O)N1C[C@@H]2N[C@H](C1)C2c1ccc(-c2cccc(C#N)c2)cc1` (some centres not stated), for the setting “at 10 µM”, the max activity is 22.9% (inactive).

Regarding `CC(C)OC(=O)CC1C(=O)NCCN1C(=S)NC(=O)c1cccs1` (configuration not stated), the max activity (at 3.5 µM) is 7.79% (inactive).

In the case of `C[C@H]1CN([C@@H](C)CO)C(=O)c2c(c3ccccc3n2C)-c2ccccc2CO[C@@H]1CN(C)S(=O)(=O)c1ccc([N+](=O)[O-])cc1`, the max activity (at 3 µM) is -14.8% (inactive).

For `O=C1C(Br)=C(c2ccccc2)C(c2ccccc2)=C1c1ccccc1`, the max activity (at 1.1 µM) was -5.75% (inactive).

As for `N#C[C@@H]1[C@@H](c2ccccc2-c2ccccc2)[C@@H](CO)N1C(=O)NC1CCCC1`, the max activity (at 1.1 µM) was 20.9% (inactive).

`CCc1cnc(N2[C@H](C#N)[C@@H](c3ccccc3C3=CCCC3)[C@@H]2CO)s1`: the max activity (at 10 µM) is 9.74% (inactive).

Turning to `CC(=O)Nc1nc2nc(-c3ccccc3)cc(-c3ccccc3)n2n1`, under “at 0.0135 µM”, the max activity is 11.6% (inactive).

Consider `CCc1cc2c(=O)c(-c3ccc4c(c3)OCCO4)coc2c(CN2CCCCC2C)c1O` (configuration not stated), for which the max activity (at 10 µM) was 26.6% (inactive).

On to `C[C@H]1CCCCO[C@H](CN(C)Cc2ccc(C(F)(F)F)cc2)[C@@H](C)CN([C@@H](C)CO)C(=O)c2cc(NC(=O)Nc3cccc4ccccc34)ccc2O1`, for which the max activity (at 0.0046 µM) was 7.77% (inactive).

As for `O=c1cc(-c2ccccc2)oc2cc(O)cc(O)c12`, the max activity (at 0.12 µM) was 45.8% (inactive).

As for `Cc1noc(C)c1S(=O)(=O)Nc1ccc2c(c1)C(=O)N([C@@H](C)CO)C[C@H](C)[C@@H](CN(C)C(=O)Nc1cccc3ccccc13)OCCCC[C@H](C)O2`, the max activity (at 3.5 µM) was -10.7% (inactive).

As to `COCCn1c(C)cc(C(=O)COC(=O)c2ccc(Br)o2)c1C`, the max activity (at 3.5 µM) was -9.22% (inactive).

In the case of `CC(C)(C)c1cc(/C=C(\C#N)C(N)=S)cc(C(C)(C)C)c1O`, the max activity (at 0.38 µM) was -4.66% (inactive).

On to `O=C(c1ccc(-c2ccc([N+](=O)[O-])cc2)o1)N1CCCC(C(F)(F)F)C1` (configuration not stated), for which the max activity (at 10 µM) is 46.5% (inactive).

As to `Cc1ccc(OCCn2cnc3c(N)ncnc32)cc1`, the max activity (at 3.5 µM) is -11.4% (inactive).

Consider `N#C[C@@H]1[C@@H](c2ccccc2-c2ccc(F)cc2)[C@H](CO)N1C(=O)NC1CCCCC1`, for which, where the note is “at 1.2 µM”, the max activity was 18.3% (inactive).

With `C=C1C(=O)OC2C=C(CO)CCC=C(CO)CC(OC(=O)C(C)C)C12` (configuration not stated), the max activity (at 10 µM) was 28.9% (inactive).

With `CCc1cnc(N2[C@H](C#N)[C@@H](c3ccc(C#CC(C)C)cc3)[C@H]2CO)s1`, the max activity (at 10 µM) is 16.5% (inactive).

As for `O=C(NCc1ccccn1)C1CCCN(S(=O)(=O)c2ccccc2)C1` (configuration not stated), under “at 1.1 µM”, the max activity is 18.3% (inactive).

As for `Cc1ccc(S(=O)(=O)N2CCCC2CNC(=O)c2ccc3c(c2)OCO3)cc1` (configuration not stated), under “at 3.5 µM”, the max activity is -23.3% (inactive).

As to `N#Cc1ccc(-c2ccc3c(c2)[C@H]2[C@H](CCN2C(=O)C2CC2)[C@@H](CO)N3)cc1`, where the note is “at 3.5 µM”, the max activity was -16.6% (inactive).

Take `O=C1C=CC(=O)C2=C1C1c3ccccc3C2c2ccccc21`: under “at 0.0135 µM”, the max activity was 13% (inactive).

For the compound `N#C[C@H]1[C@H](c2ccc(C#CC3CCCCC3)cc2)[C@@H](CO)N1C(=O)Nc1ccc(F)cc1`, the max activity (at 0.135 µM) was 9.41% (inactive).

For the compound `CC(C)(C)n1cc(C(=O)c2ccc3ccccc3c2O)cn1`, the max activity (at 1.1 µM) was -24.4% (inactive).

As for `CCN(CC(=O)Nc1ccc(NC(C)=O)cc1)C(=O)C1CCCN(C(=O)c2ccc(Cl)cc2)C1` (configuration not stated), the max activity (at 0.0005 µM) is -4.62% (inactive).

As to `CCCNC(=O)N1[C@H](C#N)[C@@H](c2ccc(-c3cccc(OC)c3)cc2)[C@H]1CO`, the max activity (at 10 µM) is 11.7% (inactive).

As for `COc1ccc(S(=O)(=O)Nc2ccc3c(c2)C(=O)N([C@@H](C)CO)C[C@@H](C)[C@@H](CN(C)Cc2ccc(C(F)(F)F)cc2)OCCCC[C@H](C)O3)cc1`, the max activity (at 3.5 µM) was -16.5% (inactive).

With `COC(=O)c1ccc2c(=O)[nH]c(COC(=O)c3c(-c4ccccc4)noc3C)nc2c1`, where the note is “at 3.5 µM”, the max activity is 8.26% (inactive).

`COc1ccccc1C(=O)Nc1ccc2c(c1)C(=O)N(C)[C@H]1CC[C@H](CC(=O)Nc3cccc(C(C)C)c3)O[C@@H]1CO2`: the max activity (at 1.1 µM) is 37.4% (inactive).

For the compound `Cc1cc(C)c2c(c1)SC1=NC(c3ccccc3)(C(F)(F)F)NC(=O)N12` (configuration not stated), the max activity (at 0.12 µM) is -5.9% (inactive).

For the compound `CCCNC(=O)N1[C@H](CO)[C@H](c2ccc(/C=C/c3ccccc3)cc2)[C@@H]1C#N`, the max activity (at 10 µM) is 45.4% (inactive).

For the compound `N#C[C@H]1[C@@H](c2ccc(C#CC3CCCCC3)cc2)[C@H](CO)N1C(=O)Nc1ccc(F)cc1`, the max activity (at 3.5 µM) is -11.6% (inactive).

Regarding `CC(=O)NCCCC(=O)NC(CCC(=O)OCc1ccccc1)C(=O)OCc1ccccc1` (configuration not stated), under “at 3.5 µM”, the max activity was -20% (inactive).

Turning to `c1cncc(C2=NCCC2)c1`, the max activity (at 10 µM) was 38% (inactive).

Regarding `Cc1ccccc1-c1ccc(C2[C@@H]3CN(C(=O)Nc4cccc(F)c4)C[C@H]2N3)cc1` (some centres not stated), the max activity (at 0.0135 µM) is -14.6% (inactive).

For `CCCCc1nc2ccccc2[nH]1`, the max activity (at 10 µM) was 6.54% (inactive).

`CCc1cc2c(COC(=O)c3cc(S(=O)(=O)N4CCOCC4)ccc3F)cc(=O)oc2cc1O`: for the setting “at 0.0135 µM”, the max activity is 15.8% (inactive).

`C[C@@H]1CN([C@@H](C)CO)C(=O)c2c(c3ccccc3n2C)-c2ccccc2CO[C@H]1CN(C)Cc1cccc(C(=O)Nc2ccccc2N)c1`: the max activity (at 0.0135 µM) is 9.96% (inactive).

For the compound `CC(=NNC(=S)N1CC2CCC(CC2)C1)c1nccs1`, the max activity (at 10 µM) is 43.9% (inactive).

In the case of `OC(CCN1CCCCC1)c1ccc(-c2ccccc2)cc1` (configuration not stated), where the note is “at 10 µM”, the max activity was 32.8% (inactive).

As for `Cc1ccc(C2(C)NC(=O)N(CC(=O)Nc3cccnc3Cl)C2=O)cc1` (configuration not stated), the max activity (at 0.12 µM) was -17.9% (inactive).

For the compound `C[C@@H]1CN([C@@H](C)CO)C(=O)c2c(c3ccccc3n2C)-c2ccccc2CO[C@@H]1CN(C)Cc1cccc(C(F)(F)F)c1`, the max activity (at 0.38 µM) is -7.66% (inactive).

Regarding `C[C@@H]1CCCCO[C@@H](CN(C)C(=O)C2CCCCC2)[C@@H](C)CN([C@H](C)CO)C(=O)c2cc(NS(=O)(=O)c3ccccc3)ccc2O1`, under “at 0.38 µM”, the max activity was 15.5% (inactive).

In the case of `O=C(Nc1ccc([N+](=O)[O-])cc1Cl)c1cc(Cl)ccc1O`, the max activity (at 1.1 µM) was 14.6% (inactive).

Turning to `N#Cc1cccc(-c2ccc([C@@H]3[C@H](CO)N4CCCCN(C(=O)Nc5cccc(F)c5)C[C@@H]34)cc2)c1`, the max activity (at 0.38 µM) was -15% (inactive).

As to `CCCNC(=O)N1[C@H](CO)[C@H](c2ccc(-c3cccc(OC)c3)cc2)[C@@H]1C#N`, the max activity (at 1.1 µM) is 18% (inactive).

Take `O=C(C[C@@H]1CC[C@H]2[C@@H](COC[C@@H](O)CN2Cc2cc(F)ccc2F)O1)NCc1ccc(Oc2ccccc2)cc1`: where the note is “at 3.5 µM”, the max activity was -19.8% (inactive).

As for `CN1C(=O)c2cc(NC(=O)c3cccc(Cl)c3)ccc2OC[C@@H]2O[C@@H](CC(=O)NC3CCCCC3)CC[C@H]21`, the max activity (at 10 µM) was -5.27% (inactive).

`C[C@@H]1CCCCO[C@@H](CN(C)CC2CCCCC2)[C@@H](C)CN([C@@H](C)CO)C(=O)c2cc(NC(=O)Nc3ccc(C(F)(F)F)cc3)ccc2O1`: the max activity (at 0.12 µM) is 11.4% (inactive).

Consider `NS(=O)(=O)c1cc2c(cc1C(F)(F)F)NC(Cc1ccccc1)NS2(=O)=O` (configuration not stated), for which the max activity (at 0.0046 µM) was 6.69% (inactive).

In the case of `Cc1ccc(O)c(N=Nc2ccccc2)n1`, under “at 0.12 µM”, the max activity was 62% (inactive).

In the case of `CC(=O)c1cc(-c2ccccc2)n(CC(=O)NCc2cccs2)c1C`, the max activity (at 0.38 µM) is 12.3% (inactive).
